Among the data in patent publication US20070287699A1, “ANTIVIRAL AGENTS” (ViroBay, Inc., priority 2006, published 2007) are IC50 values, retold here.

This assay concerns HCV replicon RNA replication in human Huh7 hepatoma cells. The experiment in a line: HCV replicon assay (activity levels from either or both of HCV replicon assay 1, Huh7/Clone A RT-qPCR, and assay 2, Huh7 ET luc-ubi-neo/ET). As to conditions: 48 hours, 72 hours, Luc activity or RT-PCR, read-out: inhibit HCV replication at IC50 levels or estimated IC50 levels. Type of assay: cell-based, Hepatitis C virus (HCV). The procedure, abridged: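 Huh7/Clone A subgenomic replicon cells treated 48 h at 37° C. with 7 serial dilutions in triplicate (0.5% DMSO final). Replicon RNA measured by TaqMan RT-qPCR on the neo gene, normalized to RiboGreen total RNA; untreated cells set as 100% for IC50.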

Setting [1] is: Hepatitis C virus, Huh-7, either or both HCV replicon assays: Huh7/Clone A.

By IC50 is commonly meant the concentration needed to halve the response being measured.

Where two headings read alike, the source gives them in different places.

In the case of `C[C@@H]1CN(c2cc3c(cc2F)c(=O)c(-c2noc(C(C)(C)c4ccc(F)cc4)n2)cn3Cc2ccc(C(F)(F)F)cc2)C[C@H](C)N1` [Compound 133, 7-((3S,5R)-3,5-dimethylpiperazin-1-yl)-6-fluoro-3-(5-(2-(4-fluorophenyl)propan-2-yl)-1,2,4-oxadiazol-3-yl)-1-(4-(trifluoromethyl)benzyl)quinolin-4(1H)-one], under setting [1], the IC50 was below 0.5 µM.
On to `CC(C)(c1ccccc1)c1nc(-c2cn(Cc3ccc(C(F)(F)F)cc3)c3cc(N4CC[S+]([O-])CC4)c(F)cc3c2=O)no1` [Compound 129], for which, under setting [1], the IC50 was below 0.5 µM.
`COc1cc2c(=O)c(-c3nc(Cc4ccccc4)no3)cn(Cc3ccc(Cl)cc3)c2cc1OC` [Compound 169, 3-(3-benzyl-[1,2,4]oxadiazol-5-yl)-1-(4-chloro-benzyl)-6,7-dimethoxy-1H-quinolin-4-one]: the IC50 under setting [1] was above 10 µM.
On to `C[C@H](c1ccccc1)n1cc(-c2noc(C(C)(C)c3ccccc3)n2)c(=O)c2cc(F)c(N3CCOCC3)cc21` [Compound 145, (R)-6-fluoro-7-morpholino-1-(1-phenylethyl)-3-(5-(2-phenylpropan-2-yl)-1,2,4-oxadiazol-3-yl)quinolin-4(1H)-one], for which the IC50 under setting [1] is above 10 µM.
Same read-out and setting: the result for `CN1CCN(c2cc3c(cc2F)c(=O)c(-c2noc(CC4CCCC4)n2)cn3CC2CCCCC2)CC1` [Compound 15, 1-cyclohexylmethyl-3-(5-cyclopentylmethyl-[1,2,4]oxadiazol-3-yl)-6-fluoro-7-(4-methyl-piperazin-1-yl)-1H-quinolin-4-one] reads below 10 µM; that for `COc1cc2c(=O)c(-c3noc(CC4CCCC4)n3)cn(Cc3ccc(Cl)cc3)c2cc1OC` [Compound 7, 1-(4-chloro-benzyl)-3-(5-cyclopentylmethyl-[1,2,4]oxadiazol-3-yl)-6,7-dimethoxy-1H-quinolin-4-one], above 10 µM; that for `CC(c1ccc(C(F)(F)F)cc1)n1cc(-c2noc(C(C)(C)c3ccc(F)cc3)n2)c(=O)c2cc(F)c(N3CCOCC3)cc21` (centres unmarked) [Compound 109, 6-fluoro-3-(5-(2-(4-fluorophenyl)propan-2-yl)-1,2,4-oxadiazol-3-yl)-7-morpholino-1-(1-(4-(trifluoromethyl)phenyl)ethyl)quinolin-4(1H)-one], below 2 µM.
With `COc1cc2c(=O)c(-c3noc(Cc4ccsc4)n3)cn(Cc3ccc(Cl)cc3)c2cc1OC` [Compound 6, 1-(4-chloro-benzyl)-6,7-dimethoxy-3-(5-thiophen-3-ylmethyl-[1,2,4]oxadiazol-3-yl)-1H-quinolin-4-one], the IC50 under setting [1] is below 10 µM.
The same measure, in the same setting: as for `O=c1c(-c2noc(Cc3ccccc3)n2)cn(Cc2ccc(C(F)(F)F)cc2)c2cc(N(CCO)CCO)c(F)cc12` [Compound 83, 3-(5-benzyl-[1,2,4]oxadiazol-3-yl)-7-[bis-(2-hydroxy-ethyl)-amino]-6-fluoro-1-(4-trifluoromethyl-benzyl)-1H-quinolin-4-one], the figure is below 10 µM.
On the same count and under the same terms, the result for `O=c1c(-c2noc(Cc3ccccc3)n2)cn(CC2CCCCC2)c2ccc(O)cc12` [Compound 24, 3-(5-benzyl-[1,2,4]oxadiazol-3-yl)-1-cyclohexylmethyl-6-hydroxy-1H-quinolin-4-one] reads above 10 µM.
On to `CN1CCN(c2cc3c(cc2F)c(=O)c(-c2noc(Cc4ccc(F)cc4)n2)cn3Cc2ccc(C(F)(F)F)cc2)CC1` [Compound 37, 6-fluoro-3-[5-(4-fluoro-benzyl)-[1,2,4]oxadiazol-3-yl]-7-(4-methyl-piperazin-1-yl)-1-(4-trifluoromethyl-benzyl)-1H-quinolin-4-one], for which the IC50 under setting [1] was below 2 µM.
Still for that read-out and setting: as for `CC(C)(C)c1ccc(Cn2cc(-c3noc(Cc4ccccc4)n3)c(=O)c3cc(F)c(N4CCCNCC4)cc32)cc1` [Compound 102, 3-(5-benzyl-[1,2,4]oxadiazol-3-yl)-1-(4-tert-butyl-benzyl)-7-[1,4]diazepan-1-yl-6-fluoro-1H-quinolin-4-one], the figure is below 2 µM; as for `N#CCCCC(c1ccccc1)c1nc(-c2cn(Cc3ccc(C(F)(F)F)cc3F)c3ccccc3c2=O)no1` (centres unmarked) [Compound 95, 5-{3-[1-(2-fluoro-4-trifluoromethyl-benzyl)-4-oxo-1,4-dihydro-quinolin-3-yl]-[1,2,4]oxadiazol-5-yl}-5-phenyl-pentanenitrile], above 10 µM; as for `CN1CCN(c2cc3c(cc2F)c(=O)c(-c2noc(Cc4ccc(F)cc4)n2)cn3Cc2ccc(Cl)cc2)CC1` [Compound 28, 1-(4-chloro-benzyl)-6-fluoro-3-[5-(4-fluoro-benzyl)-[1,2,4]oxadiazol-3-yl]-7-(4-methyl-piperazin-1-yl)-1H-quinolin-4-one], below 2 µM.
For `CC(=O)N1CCN(c2cc3c(cc2F)c(=O)c(-c2noc(Cc4ccccc4)n2)cn3Cc2ccc(Cl)cc2)CC1` [Compound 27, 7-(4-acetyl-piperazin-1-yl)-3-(5-benzyl-[1,2,4]oxadiazol-3-yl)-1-(4-chloro-benzyl)-6-fluoro-1H-quinolin-4-one], the IC50 under setting [1] was below 2 µM.
The same measure, in the same setting: as for `CN1CCN(c2cc3c(cc2F)c(=O)c(-c2noc(Cc4ccc(F)cc4)n2)cn3C2(c3ccc(C(F)(F)F)cc3)CC2)CC1` [Compound 88b, 6-fluoro-3-[5-(4-fluoro-benzyl)-[1,2,4]oxadiazol-3-yl]-7-(4-methyl-piperazin-1-yl)-1-[1-(4-trifluoromethyl-phenyl)-cyclopropyl]-1H-quinolin-4-one], the figure is below 2 µM; as for `CN1CCN(c2cc3c(cc2F)c(=O)c(-c2noc(Cc4cc(F)cc(F)c4)n2)cn3Cc2ccc(Cl)cc2)CC1` [Compound 46, 1-(4-chloro-benzyl)-3-[5-(3,5-difluoro-benzyl)-[1,2,4]oxadiazol-3-yl]-6-fluoro-7-(4-methyl-piperazin-1-yl)-1H-quinolin-4-one], below 10 µM.
Take `C[C@@H](c1ccccc1)n1cc(-c2noc(C(C)(C)c3ccccc3)n2)c(=O)c2cc(F)c(N3CCOCC3)cc21` [Compound 143, (S)-6-fluoro-7-morpholino-1-(1-phenylethyl)-3-(5-(2-phenylpropan-2-yl)-1,2,4-oxadiazol-3-yl)quinolin-4(1H)-one]: the IC50 under setting [1] was above 10 µM.
Take `O=c1c(-c2ncc(Cc3ccccc3)o2)cn(Cc2ccc(Cl)cc2)c2ccc(OCCCN3CCOCC3)cc12` [Compound 176, 3-(5-benzyl-oxazol-2-yl)-1-(4-chloro-benzyl)-6-(3-morpholin-4-yl-propoxy)-1H-quinolin-4-one]: the IC50 under setting [1] is below 10 µM.
Still for that read-out and setting: the result for `CN1CCN(c2cc3c(cc2F)c(=O)c(-c2noc(C(CCCC#N)c4ccccc4)n2)cn3Cc2ccc(C(F)(F)F)cc2F)CC1` (centres unmarked) [Compound 88a, 5-{3-[6-fluoro-1-(2-fluoro-4-trifluoromethyl-benzyl)-7-(4-methyl-piperazin-1-yl)-4-oxo-1,4-dihydro-quinolin-3-yl]-[1,2,4]oxadiazol-5-yl}-5-phenyl-pentanenitrile] reads below 0.5 µM.
For `COc1ccc2c(=O)c(-c3noc(Cc4ccccc4)n3)cn(Cc3ccc(C(F)(F)F)cc3)c2c1` [Compound 68, 3-(5-benzyl-oxadiazol-3-yl)-7-methoxy-1-(4-trifluoromethyl-benzyl)-1H-quinolin-4-one], under setting [1], the IC50 was above 10 µM.
The same measure, in the same setting: as for `O=C(O)c1ccc2c(c1)c(=O)c(-c1noc(Cc3ccccc3)n1)cn2Cc1ccc(C(F)(F)F)cc1F` [Compound 43, 3-(5-benzyl-[1,2,4]oxadiazol-3-yl)-1-(2-fluoro-4-trifluoromethyl-benzyl)-4-oxo-1,4-dihydro-quinoline-6-carboxylic acid], the figure is above 10 µM; as for `O=c1c(-c2nc(Cc3ccc(F)cc3)no2)cn(Cc2ccc(C(F)(F)F)cc2)c2cc(N3CCOCC3)c(F)cc12` [Compound 172, 6-fluoro-3-(3-(4-fluorobenzyl)-1,2,4-oxadiazol-5-yl)-7-morpholino-1-(4-(trifluoromethyl)benzyl)quinolin-4(1H)-one], above 10 µM; as for `COc1ccc(Cn2cc(-c3noc(C(C)(C)c4ccc(F)cc4)n3)c(=O)c3cc(F)c(N4CCOCC4)cc32)cc1` [Compound 130, 6-fluoro-3-(5-(2-(4-fluorophenyl)propan-2-yl)-1,2,4-oxadiazol-3-yl)-1-(4-methoxybenzyl)-7-morpholinoquinolin-4(1H)-one], below 2 µM.
Still for that read-out and setting: the result for `CC1CN(c2cc3c(cc2F)c(=O)c(-c2noc(C(C)(C)c4ccccc4)n2)cn3Cc2ccc(C(F)(F)F)cc2)CC(C)O1` (centres unmarked) [Compound 138, 7-(2,6-dimethylmorpholino)-6-fluoro-3-(5-(2-phenylpropan-2-yl)-1,2,4-oxadiazol-3-yl)-1-(4-(trifluoromethyl)benzyl)quinolin-4(1H)-one] reads below 2 µM; that for `COc1cc2c(=O)c(-c3nnc(Cc4ccc(Cl)cc4)o3)cn(Cc3ccc(Cl)cc3)c2cc1OC` [Compound 162, 1-(4-chloro-benzyl)-3-[5-(4-chloro-benzyl)-[1,3,4]oxadiazol-2-yl]-6,7-dimethoxy-1H-quinolin-4-one], above 10 µM.
Turning to `CN1CCN(c2cc3c(cc2F)c(=O)c(-c2noc(Cc4ccccc4)n2)cn3Cc2ccc(C(F)(F)F)cc2F)CC1` [Compound 16, 3-(5-benzyl-[1,2,4]oxadiazol-3-yl)-6-fluoro-1-(2-fluoro-4-trifluoromethyl-benzyl)-7-(4-methyl-piperazin-1-yl)-1H-quinolin-4-one], under “either or both HCV replicon assays: Huh7/Clone A”, the IC50 was below 0.5 µM.
`CN1CCN(c2cc3c(cc2F)c(=O)c(-c2noc(C(CC(N)=O)c4ccccc4)n2)cn3Cc2ccc(Cl)cc2)CC1` (centres unmarked) [Compound 60, 3-{3-[1-(4-chloro-benzyl)-6-fluoro-7-(4-methyl-piperazin-1-yl)-4-oxo-1,4-dihydro-quinolin-3-yl]-[1,2,4]oxadiazol-5-yl}-3-phenyl-propionamide]: the IC50 under setting [1] is above 10 µM.
Still for that read-out and setting: the result for `CN1CCN(c2cc3c(cc2F)c(=O)c(-c2noc(CC4CC4)n2)cn3CC2CCCCC2)CC1` [Compound 14, 1-cyclohexylmethyl-3-(5-cyclopropylmethyl-[1,2,4]oxadiazol-3-yl)-6-fluoro-7-(4-methyl-piperazin-1-yl)-1H-quinolin-4-one] reads below 10 µM.
